Laboratory results from patent US10308639B2, “Phosphatidylinositol 3-kinase inhibitors” (Gilead Sciences, Inc., priority 2014, dated 2019).

Tests used:
Type in all cases: biochemical
[1] = target: T1, PI3Kγ (Homo sapiens, UniProt P48736); assay: TR-FRET enzymatic activity assay, PI3Kγ; settings: Table 2a; same assay; read-out: PI3Kγ IC50
T1 construct: made in house
How it was run: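 Enzymatic activity against the PI3K isoforms was measured using a time-resolved fluorescence resonance energy transfer (TR-FRET) assay.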

[2] = target: T2, PI3Kβ (Homo sapiens, UniProt P42338); assay: TR-FRET enzymatic activity assay, PI3Kβ; settings: Table 2a; same assay
T2 construct: made in house
T2 sequence (P42338 whole entry): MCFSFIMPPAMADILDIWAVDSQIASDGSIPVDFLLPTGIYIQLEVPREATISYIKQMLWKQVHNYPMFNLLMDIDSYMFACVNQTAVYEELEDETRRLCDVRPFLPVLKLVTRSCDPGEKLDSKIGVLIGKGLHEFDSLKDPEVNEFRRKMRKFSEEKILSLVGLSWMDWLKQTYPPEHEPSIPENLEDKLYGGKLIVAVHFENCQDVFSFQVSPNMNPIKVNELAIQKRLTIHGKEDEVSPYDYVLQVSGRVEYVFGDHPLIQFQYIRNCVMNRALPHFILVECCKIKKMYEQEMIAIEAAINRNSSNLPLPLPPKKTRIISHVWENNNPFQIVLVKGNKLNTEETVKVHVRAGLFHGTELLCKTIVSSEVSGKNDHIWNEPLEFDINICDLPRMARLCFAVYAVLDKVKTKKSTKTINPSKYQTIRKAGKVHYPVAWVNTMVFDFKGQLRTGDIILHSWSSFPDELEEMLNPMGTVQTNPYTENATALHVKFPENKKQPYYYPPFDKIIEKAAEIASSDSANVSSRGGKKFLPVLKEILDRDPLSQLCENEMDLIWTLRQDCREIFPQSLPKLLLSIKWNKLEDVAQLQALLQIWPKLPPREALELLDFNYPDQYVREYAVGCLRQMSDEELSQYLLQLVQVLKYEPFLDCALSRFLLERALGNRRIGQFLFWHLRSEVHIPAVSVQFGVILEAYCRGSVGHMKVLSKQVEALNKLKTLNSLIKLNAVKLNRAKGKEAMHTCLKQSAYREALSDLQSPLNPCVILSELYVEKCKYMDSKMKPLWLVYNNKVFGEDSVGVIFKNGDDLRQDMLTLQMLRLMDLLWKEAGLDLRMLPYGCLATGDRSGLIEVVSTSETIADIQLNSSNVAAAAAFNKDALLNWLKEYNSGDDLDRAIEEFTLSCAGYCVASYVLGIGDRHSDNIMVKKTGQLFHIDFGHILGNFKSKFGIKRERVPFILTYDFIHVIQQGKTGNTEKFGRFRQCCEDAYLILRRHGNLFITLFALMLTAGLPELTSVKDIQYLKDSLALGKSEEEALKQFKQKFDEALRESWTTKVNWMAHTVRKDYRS
T2 sequence (P27986 whole entry partner): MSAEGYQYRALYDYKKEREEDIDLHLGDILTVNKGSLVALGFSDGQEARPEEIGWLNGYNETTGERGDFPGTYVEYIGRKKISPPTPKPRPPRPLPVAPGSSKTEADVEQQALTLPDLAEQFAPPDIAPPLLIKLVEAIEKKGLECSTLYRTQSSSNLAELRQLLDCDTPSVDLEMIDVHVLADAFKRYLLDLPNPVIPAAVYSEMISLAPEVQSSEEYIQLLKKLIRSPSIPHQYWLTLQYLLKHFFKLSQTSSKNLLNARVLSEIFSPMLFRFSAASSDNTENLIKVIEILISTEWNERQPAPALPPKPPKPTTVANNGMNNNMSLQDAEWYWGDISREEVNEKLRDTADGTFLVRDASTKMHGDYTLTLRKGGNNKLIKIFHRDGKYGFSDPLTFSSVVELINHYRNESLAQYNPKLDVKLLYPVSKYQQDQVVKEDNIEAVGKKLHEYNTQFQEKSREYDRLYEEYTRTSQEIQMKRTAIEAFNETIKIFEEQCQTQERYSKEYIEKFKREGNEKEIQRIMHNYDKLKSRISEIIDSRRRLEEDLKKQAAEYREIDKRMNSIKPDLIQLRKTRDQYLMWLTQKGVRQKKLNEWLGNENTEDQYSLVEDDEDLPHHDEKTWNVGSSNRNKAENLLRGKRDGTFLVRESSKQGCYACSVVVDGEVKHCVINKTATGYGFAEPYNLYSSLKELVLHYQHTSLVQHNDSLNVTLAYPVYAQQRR

[3] = target: T3, PI3Kδ (Homo sapiens, UniProt O00329); assay: TR-FRET enzymatic activity assay, PI3Kδ; settings: Table 2a; same assay
T3 construct: made in house
T3 sequence (O00329 whole entry): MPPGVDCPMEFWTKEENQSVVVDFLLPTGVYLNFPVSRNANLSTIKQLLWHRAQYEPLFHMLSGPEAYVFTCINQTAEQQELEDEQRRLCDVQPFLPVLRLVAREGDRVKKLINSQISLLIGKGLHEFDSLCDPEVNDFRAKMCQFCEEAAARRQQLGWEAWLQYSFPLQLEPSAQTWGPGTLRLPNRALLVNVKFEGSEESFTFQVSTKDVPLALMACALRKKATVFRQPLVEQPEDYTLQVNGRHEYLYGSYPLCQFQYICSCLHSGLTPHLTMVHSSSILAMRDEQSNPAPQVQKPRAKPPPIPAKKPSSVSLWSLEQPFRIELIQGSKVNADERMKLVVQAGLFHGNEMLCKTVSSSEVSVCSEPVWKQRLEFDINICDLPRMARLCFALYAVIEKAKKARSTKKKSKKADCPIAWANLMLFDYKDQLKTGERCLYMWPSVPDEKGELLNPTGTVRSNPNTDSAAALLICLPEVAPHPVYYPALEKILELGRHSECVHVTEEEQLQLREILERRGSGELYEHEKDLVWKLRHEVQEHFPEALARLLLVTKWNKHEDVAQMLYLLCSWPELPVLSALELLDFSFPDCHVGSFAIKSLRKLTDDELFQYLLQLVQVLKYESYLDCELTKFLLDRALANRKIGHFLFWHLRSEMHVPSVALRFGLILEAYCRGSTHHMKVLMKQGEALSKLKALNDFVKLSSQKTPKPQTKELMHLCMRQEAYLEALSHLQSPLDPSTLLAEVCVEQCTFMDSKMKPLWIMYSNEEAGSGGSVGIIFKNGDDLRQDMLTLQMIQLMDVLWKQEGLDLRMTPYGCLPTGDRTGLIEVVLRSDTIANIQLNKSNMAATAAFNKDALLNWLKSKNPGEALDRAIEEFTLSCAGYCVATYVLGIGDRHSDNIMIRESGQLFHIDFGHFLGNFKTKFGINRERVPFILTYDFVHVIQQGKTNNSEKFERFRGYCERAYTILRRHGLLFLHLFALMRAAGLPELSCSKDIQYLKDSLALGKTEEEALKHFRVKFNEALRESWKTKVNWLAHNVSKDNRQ
T3 sequence (P27986 whole entry partner): as the sequence (P27986 whole entry partner) above

T1 sequence (P48736 whole entry): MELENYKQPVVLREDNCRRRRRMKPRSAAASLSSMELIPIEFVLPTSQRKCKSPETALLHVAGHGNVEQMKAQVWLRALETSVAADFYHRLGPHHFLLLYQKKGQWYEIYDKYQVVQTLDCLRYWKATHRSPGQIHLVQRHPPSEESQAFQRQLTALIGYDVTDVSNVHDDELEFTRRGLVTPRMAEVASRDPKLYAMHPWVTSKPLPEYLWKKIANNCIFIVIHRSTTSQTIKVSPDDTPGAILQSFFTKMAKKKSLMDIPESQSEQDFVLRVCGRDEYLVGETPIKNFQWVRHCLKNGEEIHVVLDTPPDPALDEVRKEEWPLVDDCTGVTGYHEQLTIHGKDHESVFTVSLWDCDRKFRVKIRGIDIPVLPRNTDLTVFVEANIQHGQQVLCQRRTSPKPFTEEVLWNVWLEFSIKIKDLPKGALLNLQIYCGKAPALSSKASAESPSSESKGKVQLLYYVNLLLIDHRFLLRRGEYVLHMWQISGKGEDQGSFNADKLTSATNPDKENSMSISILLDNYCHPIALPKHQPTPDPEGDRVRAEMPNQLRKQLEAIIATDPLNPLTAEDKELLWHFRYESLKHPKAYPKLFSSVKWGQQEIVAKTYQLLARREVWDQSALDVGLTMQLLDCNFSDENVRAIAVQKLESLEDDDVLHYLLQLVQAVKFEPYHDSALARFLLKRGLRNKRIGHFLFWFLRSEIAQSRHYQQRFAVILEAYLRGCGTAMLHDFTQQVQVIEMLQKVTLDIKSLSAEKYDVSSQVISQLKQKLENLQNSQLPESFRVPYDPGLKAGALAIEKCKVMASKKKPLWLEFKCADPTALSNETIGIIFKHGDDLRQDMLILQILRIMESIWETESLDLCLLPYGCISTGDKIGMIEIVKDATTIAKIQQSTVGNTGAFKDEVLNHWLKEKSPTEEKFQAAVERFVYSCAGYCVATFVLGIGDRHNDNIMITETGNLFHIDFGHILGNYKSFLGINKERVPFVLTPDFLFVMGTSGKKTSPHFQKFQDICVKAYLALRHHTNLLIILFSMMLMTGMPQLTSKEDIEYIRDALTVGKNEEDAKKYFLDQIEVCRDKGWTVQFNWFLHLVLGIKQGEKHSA

Row | SMILES | IC50 [1] [nM] | IC50 [2] [nM] | IC50 [3] [nM]
1 | C[C@H](Nc1nc(N)nc(N)c1Cl)c1nc2c(Cl)ccc(C(F)F)c2c(=O)n1-c1cc[nH]n1 [Compound 227, (S)-8-chloro-2-(1-((2,6-diamino-5-chloropyrimidin-4-yl)amino)ethyl)-5-(difluoromethyl)-3-(1H-pyrazol-3-yl)quinazolin-4(3H)-one] | 5000 | 9 | 8
2 | C[C@H](Nc1nc(N)nc(N)c1C#N)c1nc2c(Cl)ccc(C(F)F)c2c(=O)n1-c1cc[nH]n1 [Compound 228, (S)-2,4-diamino-6-((1-(8-chloro-5-(difluoromethyl)-4-oxo-3-(1H-pyrazol-3-yl)-3,4-dihydroquinazolin-2-yl)ethyl)amino)pyrimidine-5-carbonitrile] | 870 | 1 | 0.6
3 | C[C@H](Nc1nc(N)nc(N)c1Cl)c1nc2ccc(Cl)c(C(F)F)c2c(=O)n1-c1cc[nH]n1 [Compound 229, (S)-6-chloro-2-(1-((2,6-diamino-5-chloropyrimidin-4-yl)amino)ethyl)-5-(difluoromethyl)-3-(1H-pyrazol-3-yl)quinazolin-4(3H)-one] | 5000 | 85 | 49
4 | C[C@H](Nc1nc(N)nc(N)c1C#N)c1nc2ccc(Cl)c(C(F)F)c2c(=O)n1-c1cc[nH]n1 [Compound 230, (S)-2,4-diamino-6-((1-(6-chloro-5-(difluoromethyl)-4-oxo-3-(1H-pyrazol-3-yl)-3,4-dihydroquinazolin-2-yl)ethyl)amino)pyrimidine-5-carbonitrile] | 1800 | 7 | 6
5 | C[C@H](Nc1nc(N)nc(N)c1C#N)c1nc2c(F)c(F)ccc2c(=O)n1-c1cc[nH]n1 [Compound 231, (S)-2,4-diamino-6-((1-(7,8-difluoro-4-oxo-3-(1H-pyrazol-3-yl)-3,4-dihydroquinazolin-2-yl)ethyl)amino)pyrimidine-5-carbonitrile] | 6100 | 13 | 12
6 | C[C@H](Nc1nc(N)nc(N)c1Cl)c1nc2c(F)c(F)ccc2c(=O)n1-c1cc[nH]n1 [Compound 232, (S)-2-(1-((2,6-diamino-5-chloropyrimidin-4-yl)amino)ethyl)-7,8-difluoro-3-(1H-pyrazol-3-yl)quinazolin-4(3H)-one] | > 10000 | 260 | 190
7 | C[C@H](Nc1nc(N)nc(N)c1C#N)c1nc2cc(F)cc(F)c2c(=O)n1-c1cc[nH]n1 [Compound 235, (S)-2,4-diamino-6-((1-(5,7-difluoro-4-oxo-3-(1H-pyrazol-3-yl)-3,4-dihydroquinazolin-2-yl)ethyl)amino)pyrimidine-5-carbonitrile] | 9600 | 11 | 12
8 | C[C@H](Nc1nc(N)nc(N)c1Cl)c1nc2cc(F)cc(F)c2c(=O)n1-c1cc[nH]n1 [Compound 236, (S)-2-(1-((2,6-diamino-5-chloropyrimidin-4-yl)amino)ethyl)-5,7-difluoro-3-(1H-pyrazol-3-yl)quinazolin-4(3H)-one] | > 10000 | 120 | 120
9 | C[C@H](Nc1nc(N)nc(N)c1C#N)c1nc2cc(F)cc(Cl)c2c(=O)n1-c1cc[nH]n1 [Compound 237, (S)-2,4-diamino-6-((1-(5-chloro-7-fluoro-4-oxo-3-(1H-pyrazol-3-yl)-3,4-dihydroquinazolin-2-yl)ethyl)amino)pyrimidine-5-carbonitrile] | 1400 | 2 | 2
10 | C[C@H](Nc1nc(N)nc(N)c1Cl)c1nc2cc(F)cc(Cl)c2c(=O)n1-c1cc[nH]n1 [Compound 238, (S)-5-chloro-2-(1-((2,6-diamino-5-chloropyrimidin-4-yl)amino)ethyl)-7-fluoro-3-(1H-pyrazol-3-yl)quinazolin-4(3H)-one] | > 10000 | 21 | 15
11 | N#Cc1c(N)nc(N)nc1N[C@H](c1nc2cc(F)cc(Cl)c2c(=O)n1-c1cc[nH]n1)C1CC1 [Compound 239, (S)-2,4-diamino-6-(((5-chloro-7-fluoro-4-oxo-3-(1H-pyrazol-3-yl)-3,4-dihydroquinazolin-2-yl)(cyclopropyl)methyl)amino)pyrimidine-5-carbonitrile] | 2700 | 3 | 4
12 | Nc1nc(N)c(Cl)c(N[C@H](c2nc3cc(F)cc(Cl)c3c(=O)n2-c2cc[nH]n2)C2CC2)n1 [Compound 240, (S)-5-chloro-2-(cyclopropyl((2,6-diamino-5-chloropyrimidin-4-yl)amino)methyl)-7-fluoro-3-(1H-pyrazol-3-yl)quinazolin-4(3H)-one] | > 10000 | 99 | 42
13 | Cc1c[nH]nc1-n1c([C@@H](Nc2nc(N)nc(N)c2C#N)C2CC2)nc2c(C#N)cccc2c1=O [Compound 241, (S)-2-(cyclopropyl((2,6-diamino-5-cyanopyrimidin-4-yl)amino)methyl)-3-(4-methyl-1H-pyrazol-3-yl)-4-oxo-3,4-dihydroquinazoline-8-carbonitrile] | > 10000 | 93 | 7
14 | Cc1c[nH]nc1-n1c([C@@H](Nc2nc(N)nc(Cl)c2C#N)C2CC2)nc2cccc(Cl)c2c1=O [Compound 243, (S)-2-amino-4-chloro-6-(((5-chloro-3-(4-methyl-1H-pyrazol-3-yl)-4-oxo-3,4-dihydroquinazolin-2-yl)(cyclopropyl)methyl)amino)pyrimidine-5-carbonitrile] | 3100 | 200 | 34
15 | Cc1c[nH]nc1-n1c([C@@H](Nc2nc(N)nc(C)c2C#N)C2CC2)nc2cccc(Cl)c2c1=O [Compound 244, (S)-2-amino-4-(((5-chloro-3-(4-methyl-1H-pyrazol-3-yl)-4-oxo-3,4-dihydroquinazolin-2-yl)(cyclopropyl)methyl)amino)-6-methylpyrimidine-5-carbonitrile] | 960 | 31 | 8
16 | CC[C@H](Nc1nc(N)nc(N)c1C#N)c1nc2cccc(C3CC3)c2c(=O)n1-c1cc[nH]n1 [Compound 245, (S)-2,4-diamino-6-((1-(5-cyclopropyl-4-oxo-3-(1H-pyrazol-3-yl)-3,4-dihydroquinazolin-2-yl)propyl)amino)pyrimidine-5-carbonitrile] | 370 | 4 | 6
17 | Cc1c[nH]nc1-n1c([C@@H](Nc2nc(N)nc(Cl)c2C#N)C2CC2)nc2c(C#N)cccc2c1=O [Compound 246, (S)-2-(((2-amino-6-chloro-5-cyanopyrimidin-4-yl)amino)(cyclopropyl)methyl)-3-(4-methyl-1H-pyrazol-3-yl)-4-oxo-3,4-dihydroquinazoline-8-carbonitrile] | > 10000 | 320 | 36
18 | Cc1c[nH]nc1-n1c([C@@H](Nc2nc(N)nc(N)c2C#N)C2CC2)nc2cccc(Cl)c2c1=O [Compound 247, (S)-2,4-diamino-6-(((5-chloro-3-(4-methyl-1H-pyrazol-3-yl)-4-oxo-3,4-dihydroquinazolin-2-yl)(cyclopropyl)methyl)amino)pyrimidine-5-carbonitrile] | 730 | 70 | 4
19 | Cc1c[nH]nc1-n1c([C@@H](Nc2nc(N)nc(N)c2Cl)C2CC2)nc2cccc(Cl)c2c1=O [Compound 248, (S)-5-chloro-2-(cyclopropyl((2,6-diamino-5-chloropyrimidin-4-yl)amino)methyl)-3-(4-methyl-1H-pyrazol-3-yl)quinazolin-4(3H)-one] | 8600 | 650 | 45
20 | CCC[C@H](Nc1nc(N)nc(N)c1C#N)c1nc2cccc(Cl)c2c(=O)n1-c1cn[nH]c1 [Compound 249, (S)-2,4-diamino-6-((1-(5-chloro-4-oxo-3-(1H-pyrazol-4-yl)-3,4-dihydroquinazolin-2-yl)butyl)amino)pyrimidine-5-carbonitrile] | 160 | 3 | 1
21 | CCC[C@H](Nc1nc(N)nc(N)c1Cl)c1nc2cccc(Cl)c2c(=O)n1-c1cn[nH]c1 [Compound 250, (S)-5-chloro-2-(1-((2,6-diamino-5-chloropyrimidin-4-yl)amino)butyl)-3-(1H-pyrazol-4-yl)quinazolin-4(3H)-one] | 2020 | 160 | 23
22 | CCC[C@H](Nc1nc(N)nc(N)c1C#N)c1nc2c(Cl)ccc(Cl)c2c(=O)n1-c1cn[nH]c1 [Compound 251, (S)-2,4-diamino-6-((1-(5,8-dichloro-4-oxo-3-(1H-pyrazol-4-yl)-3,4-dihydroquinazolin-2-yl)butyl)amino)pyrimidine-5-carbonitrile] | 770 | 10 | 2
23 | CCC[C@H](Nc1nc(N)nc(N)c1Cl)c1nc2c(Cl)ccc(Cl)c2c(=O)n1-c1cn[nH]c1 [Compound 252, (S)-5,8-dichloro-2-(1-((2,6-diamino-5-chloropyrimidin-4-yl)amino)butyl)-3-(1H-pyrazol-4-yl)quinazolin-4(3H)-one] | > 10000 | 920 | 75
24 | CCC[C@H](Nc1nc(N)nc(N)c1C#N)c1nc2cccc(Cl)c2c(=O)n1-c1cc[nH]n1 [Compound 253, (S)-2,4-diamino-6-((1-(5-chloro-4-oxo-3-(1H-pyrazol-3-yl)-3,4-dihydroquinazolin-2-yl)butyl)amino)pyrimidine-5-carbonitrile] | 320 | 4 | 1
25 | CCC[C@H](Nc1nc(N)nc(N)c1C#N)c1nc2c(Cl)ccc(Cl)c2c(=O)n1-c1cc[nH]n1 [Compound 254, (S)-2,4-diamino-6-((1-(5,8-dichloro-4-oxo-3-(1H-pyrazol-3-yl)-3,4-dihydroquinazolin-2-yl)butyl)amino)pyrimidine-5-carbonitrile] | 1400 | 2 | 2
